Results as given in patent publication US12227500B2, “Substituted pyrrolo[2,3-b]pyridines for suppressing toxic endoplasmic reticulum stress” (THE TRUSTEES OF COLUMBIA UNIVERSITY IN THE CITY OF NEW YORK, priority 2018, dated 2025).
Read-outs that look alike come from different tables or passages of the source.

Key:
Test in all cases: Radiolabeled ATP kinase assay, panel of 371 kinases (Table S6)
Format in all cases: biochemical
[1] = biological target: T1, panel of 371 human kinases (Homo sapiens, UniProt Q8IVT5); conditions: KSR1; 0.1 μM; 10 μM ATP; read-out: % Enzyme Activity (relative to DMSO controls)
T1 construct: purchased Reaction Biology Corp
Text: (§1) ; FIG. 38C). […]. Further targeted analyses, such as genetic knock-down or knock-out, may be warranted to parse the role of these additional kinases in our model of neurodegeneration.

[2] = biological target: T2, panel of 371 human kinases (Homo sapiens, UniProt P35626); conditions: GRK3; 0.1 μM; 10 μM ATP; read-out: % Enzyme Activity (relative to DMSO controls)
T2 construct: purchased Reaction Biology Corp
Text: as §1

[3] = biological target: T3, panel of 371 human kinases (Homo sapiens, UniProt Q15375); conditions: EPHA7; 0.1 μM; 10 μM ATP; read-out: % Enzyme Activity (relative to DMSO controls)
T3 construct: purchased Reaction Biology Corp
Text: as §1

[4] = biological target: T4, panel of 371 human kinases (Homo sapiens, UniProt Q13555); conditions: CAMK2g; 0.1 μM; 10 μM ATP; read-out: % Enzyme Activity (relative to DMSO controls)
T4 construct: purchased Reaction Biology Corp
T4 sequence (Q13555 whole entry): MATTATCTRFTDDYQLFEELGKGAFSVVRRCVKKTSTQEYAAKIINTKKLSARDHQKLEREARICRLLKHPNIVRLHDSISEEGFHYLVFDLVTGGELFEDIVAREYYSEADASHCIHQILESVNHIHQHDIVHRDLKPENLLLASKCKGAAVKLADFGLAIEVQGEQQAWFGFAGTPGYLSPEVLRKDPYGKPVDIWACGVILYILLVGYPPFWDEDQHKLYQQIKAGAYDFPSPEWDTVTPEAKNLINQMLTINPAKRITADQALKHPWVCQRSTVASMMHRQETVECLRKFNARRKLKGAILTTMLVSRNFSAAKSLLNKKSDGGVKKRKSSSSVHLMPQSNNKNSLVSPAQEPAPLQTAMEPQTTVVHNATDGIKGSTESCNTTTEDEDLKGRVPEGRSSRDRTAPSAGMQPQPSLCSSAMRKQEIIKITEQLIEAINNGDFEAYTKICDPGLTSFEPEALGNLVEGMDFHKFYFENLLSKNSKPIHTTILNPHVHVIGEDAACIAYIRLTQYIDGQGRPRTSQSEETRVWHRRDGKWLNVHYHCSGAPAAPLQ
Text: as §1

[5] = biological target: T5, panel of 371 human kinases (Homo sapiens, UniProt Q9UPZ9); conditions: LCK2/ICK; 0.1 μM; 10 μM ATP; read-out: % Enzyme Activity (relative to DMSO controls)
T5 construct: purchased Reaction Biology Corp
Text: as §1

[6] = biological target: T6, panel of 371 human kinases (Homo sapiens, UniProt Q6P2M8); conditions: CAMK1b; 0.1 μM; 10 μM ATP; read-out: % Enzyme Activity (relative to DMSO controls)
T6 construct: purchased Reaction Biology Corp
Text: as §1

[7] = biological target: T7, panel of 371 human kinases (Homo sapiens, UniProt Q9UK32); conditions: RSK4; 0.1 μM; 10 μM ATP; read-out: % Enzyme Activity (relative to DMSO controls)
T7 construct: purchased Reaction Biology Corp
T7 sequence (Q9UK32 whole entry): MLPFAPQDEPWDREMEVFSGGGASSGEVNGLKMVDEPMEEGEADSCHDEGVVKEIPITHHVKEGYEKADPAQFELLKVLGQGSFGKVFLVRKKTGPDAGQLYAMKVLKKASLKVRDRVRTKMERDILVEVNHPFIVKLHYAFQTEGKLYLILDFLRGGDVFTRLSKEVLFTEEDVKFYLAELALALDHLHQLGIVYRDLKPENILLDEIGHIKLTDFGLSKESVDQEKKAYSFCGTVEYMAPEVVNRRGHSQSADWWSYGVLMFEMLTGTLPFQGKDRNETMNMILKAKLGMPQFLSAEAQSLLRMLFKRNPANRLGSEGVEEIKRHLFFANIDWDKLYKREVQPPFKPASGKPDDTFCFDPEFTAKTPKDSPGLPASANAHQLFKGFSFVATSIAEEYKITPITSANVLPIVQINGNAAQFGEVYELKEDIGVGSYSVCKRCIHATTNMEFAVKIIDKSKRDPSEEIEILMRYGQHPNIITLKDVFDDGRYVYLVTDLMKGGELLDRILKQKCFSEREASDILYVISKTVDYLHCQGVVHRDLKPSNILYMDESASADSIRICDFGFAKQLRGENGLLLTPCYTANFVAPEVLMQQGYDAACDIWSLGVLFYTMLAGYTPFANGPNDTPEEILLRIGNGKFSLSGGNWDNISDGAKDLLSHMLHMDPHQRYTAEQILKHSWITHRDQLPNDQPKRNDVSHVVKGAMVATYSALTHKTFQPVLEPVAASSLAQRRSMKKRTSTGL
Text: as §1

[8] = biological target: T8, panel of 371 human kinases (Homo sapiens, UniProt O14920); conditions: IKKb/IKBKE; 0.1 μM; 10 μM ATP; read-out: % Enzyme Activity (relative to DMSO controls)
T8 construct: purchased Reaction Biology Corp
Text: as §1

[9] = biological target: T9, panel of 371 human kinases (Homo sapiens, UniProt P49841); conditions: GSK3b; 0.1 μM; 10 μM ATP; read-out: % Enzyme Activity (relative to DMSO controls)
T9 construct: purchased Reaction Biology Corp
T9 sequence (P49841 whole entry): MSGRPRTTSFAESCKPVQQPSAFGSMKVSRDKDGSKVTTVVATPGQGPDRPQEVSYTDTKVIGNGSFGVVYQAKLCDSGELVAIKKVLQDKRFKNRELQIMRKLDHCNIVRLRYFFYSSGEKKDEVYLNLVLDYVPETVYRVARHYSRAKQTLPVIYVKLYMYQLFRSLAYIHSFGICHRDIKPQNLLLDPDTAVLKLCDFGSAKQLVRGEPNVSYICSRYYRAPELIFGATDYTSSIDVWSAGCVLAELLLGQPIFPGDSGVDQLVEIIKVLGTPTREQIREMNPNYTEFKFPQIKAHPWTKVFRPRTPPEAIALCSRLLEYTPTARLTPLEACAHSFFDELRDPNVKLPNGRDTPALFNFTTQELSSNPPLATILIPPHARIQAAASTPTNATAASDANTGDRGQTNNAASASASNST
Text: as §1

[10] = biological target: T10, panel of 371 human kinases (Homo sapiens, UniProt Q12866); conditions: c-MER; 0.1 μM; 10 μM ATP; read-out: % Enzyme Activity (relative to DMSO controls)
T10 construct: purchased Reaction Biology Corp
Text: as §1

[11] = biological target: T11, panel of 371 human kinases (Homo sapiens, UniProt O96013); conditions: PAK4; 0.1 μM; 10 μM ATP; read-out: % Enzyme Activity (relative to DMSO controls)
T11 construct: purchased Reaction Biology Corp
T11 sequence (O96013 whole entry): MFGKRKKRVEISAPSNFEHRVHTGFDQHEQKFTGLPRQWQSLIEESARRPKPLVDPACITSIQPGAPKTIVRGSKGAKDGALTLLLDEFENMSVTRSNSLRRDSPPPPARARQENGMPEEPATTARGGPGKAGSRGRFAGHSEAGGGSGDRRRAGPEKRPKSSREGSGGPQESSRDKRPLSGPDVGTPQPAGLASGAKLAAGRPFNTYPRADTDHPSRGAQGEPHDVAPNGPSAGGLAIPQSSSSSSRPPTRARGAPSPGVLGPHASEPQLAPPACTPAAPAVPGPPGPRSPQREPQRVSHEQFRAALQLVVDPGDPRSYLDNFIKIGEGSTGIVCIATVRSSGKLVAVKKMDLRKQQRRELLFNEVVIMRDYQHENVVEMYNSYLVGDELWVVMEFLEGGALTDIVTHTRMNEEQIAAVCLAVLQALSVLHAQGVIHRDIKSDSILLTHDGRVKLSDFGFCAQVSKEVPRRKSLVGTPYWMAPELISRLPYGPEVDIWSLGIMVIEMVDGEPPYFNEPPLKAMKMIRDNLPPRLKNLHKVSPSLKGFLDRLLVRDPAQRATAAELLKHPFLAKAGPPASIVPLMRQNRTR
Text: as §1

[12] = biological target: T12, panel of 371 human kinases (Homo sapiens, UniProt P49840); conditions: GSK3a; 0.1 μM; 10 μM ATP; read-out: % Enzyme Activity (relative to DMSO controls)
T12 construct: purchased Reaction Biology Corp
T12 sequence (P49840 whole entry): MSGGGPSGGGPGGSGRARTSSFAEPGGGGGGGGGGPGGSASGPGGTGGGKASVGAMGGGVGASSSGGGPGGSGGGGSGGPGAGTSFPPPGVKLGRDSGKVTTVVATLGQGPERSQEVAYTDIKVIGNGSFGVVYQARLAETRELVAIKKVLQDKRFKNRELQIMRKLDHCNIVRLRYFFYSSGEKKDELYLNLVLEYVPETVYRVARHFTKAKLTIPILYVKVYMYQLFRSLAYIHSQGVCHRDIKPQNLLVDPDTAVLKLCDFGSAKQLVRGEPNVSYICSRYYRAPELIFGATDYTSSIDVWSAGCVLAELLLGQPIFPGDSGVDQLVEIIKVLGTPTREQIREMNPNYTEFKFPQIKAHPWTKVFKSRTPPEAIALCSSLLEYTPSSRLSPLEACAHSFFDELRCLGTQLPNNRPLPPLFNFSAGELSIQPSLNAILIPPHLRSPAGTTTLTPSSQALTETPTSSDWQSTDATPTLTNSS
Text: as §1

[13] = biological target: T13, panel of 371 human kinases (Homo sapiens, UniProt Q9NQU5); conditions: PAK6; 0.1 μM; 10 μM ATP; read-out: % Enzyme Activity (relative to DMSO controls)
T13 construct: purchased Reaction Biology Corp
Text: as §1

[14] = biological target: T14, panel of 371 human kinases (Homo sapiens, UniProt Q9NRM7); conditions: LATS2; 0.1 μM; 10 μM ATP; read-out: % Enzyme Activity (relative to DMSO controls)
T14 construct: purchased Reaction Biology Corp
T14 sequence (Q9NRM7 whole entry): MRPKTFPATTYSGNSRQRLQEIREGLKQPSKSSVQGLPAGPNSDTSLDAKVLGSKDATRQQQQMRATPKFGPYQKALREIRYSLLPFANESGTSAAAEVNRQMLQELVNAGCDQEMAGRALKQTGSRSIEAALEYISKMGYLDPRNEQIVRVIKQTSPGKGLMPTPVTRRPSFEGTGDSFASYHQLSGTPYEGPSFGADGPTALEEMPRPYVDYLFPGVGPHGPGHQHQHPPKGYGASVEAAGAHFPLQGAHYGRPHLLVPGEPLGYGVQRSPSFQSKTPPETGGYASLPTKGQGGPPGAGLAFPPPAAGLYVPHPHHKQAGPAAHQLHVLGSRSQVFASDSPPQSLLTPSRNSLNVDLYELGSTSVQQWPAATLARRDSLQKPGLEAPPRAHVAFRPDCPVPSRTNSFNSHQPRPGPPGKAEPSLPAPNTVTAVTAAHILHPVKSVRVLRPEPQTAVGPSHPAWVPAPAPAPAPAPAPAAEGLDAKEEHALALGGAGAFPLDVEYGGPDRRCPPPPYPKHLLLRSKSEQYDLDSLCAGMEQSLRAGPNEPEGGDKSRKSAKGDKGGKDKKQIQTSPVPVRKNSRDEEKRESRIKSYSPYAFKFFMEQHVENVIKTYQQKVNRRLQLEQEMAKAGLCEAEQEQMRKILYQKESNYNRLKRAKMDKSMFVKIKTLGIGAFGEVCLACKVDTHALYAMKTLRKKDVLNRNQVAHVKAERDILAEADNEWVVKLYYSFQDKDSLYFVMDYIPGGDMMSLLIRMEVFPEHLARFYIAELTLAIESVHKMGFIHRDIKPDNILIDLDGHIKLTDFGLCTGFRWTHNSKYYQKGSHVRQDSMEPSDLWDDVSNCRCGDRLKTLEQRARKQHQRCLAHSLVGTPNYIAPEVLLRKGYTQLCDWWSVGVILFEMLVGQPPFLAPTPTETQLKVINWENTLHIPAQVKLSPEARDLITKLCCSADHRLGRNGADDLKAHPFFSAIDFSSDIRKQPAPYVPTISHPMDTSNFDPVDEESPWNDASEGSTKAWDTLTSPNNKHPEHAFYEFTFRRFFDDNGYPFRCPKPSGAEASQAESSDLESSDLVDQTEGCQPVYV
Text: as §1

[15] = biological target: T15, panel of 371 human kinases (Homo sapiens, UniProt Q9H4A3); conditions: WNK1; 0.1 μM; 10 μM ATP; read-out: % Enzyme Activity (relative to DMSO controls)
T15 construct: purchased Reaction Biology Corp
Text: as §1

[16] = biological target: T16, panel of 371 human kinases (Homo sapiens, UniProt P29597); conditions: TYK2; 0.1 μM; 10 μM ATP; read-out: % Enzyme Activity (relative to DMSO controls)
T16 construct: purchased Reaction Biology Corp
Text: as §1

[17] = biological target: T17, panel of 371 human kinases (Homo sapiens, UniProt Q6PHR2); conditions: ULK3; 0.1 μM; 10 μM ATP; read-out: % Enzyme Activity (relative to DMSO controls)
T17 construct: purchased Reaction Biology Corp
Text: as §1

[18] = biological target: T18, panel of 371 human kinases (Homo sapiens, UniProt Q96RG2); conditions: PASK; 0.1 μM; 10 μM ATP; read-out: % Enzyme Activity (relative to DMSO controls)
T18 construct: purchased Reaction Biology Corp
Text: as §1

[19] = biological target: T19, panel of 371 human kinases (Homo sapiens, UniProt Q00534); conditions: 0.1 μM, 10 μM ATP, read-out: % Enzyme Activity (relative to DMSO controls)
T19 construct: purchased Reaction Biology Corp
T19 sequence (Q00534 whole entry): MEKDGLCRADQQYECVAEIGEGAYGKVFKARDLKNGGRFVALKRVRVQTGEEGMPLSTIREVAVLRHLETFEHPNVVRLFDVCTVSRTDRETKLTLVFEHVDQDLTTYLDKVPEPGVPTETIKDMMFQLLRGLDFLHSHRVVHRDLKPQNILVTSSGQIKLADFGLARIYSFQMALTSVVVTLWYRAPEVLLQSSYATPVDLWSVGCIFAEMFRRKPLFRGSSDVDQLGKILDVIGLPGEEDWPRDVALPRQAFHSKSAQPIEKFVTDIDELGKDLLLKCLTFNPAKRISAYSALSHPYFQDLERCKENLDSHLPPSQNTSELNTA
Text: as §1

[20] = biological target: T20, panel of 371 human kinases (Homo sapiens, UniProt Q96PN8); conditions: TSSK3/STK22C; 0.1 μM; 10 μM ATP; read-out: % Enzyme Activity (relative to DMSO controls)
T20 construct: purchased Reaction Biology Corp
T20 sequence (Q96PN8 whole entry): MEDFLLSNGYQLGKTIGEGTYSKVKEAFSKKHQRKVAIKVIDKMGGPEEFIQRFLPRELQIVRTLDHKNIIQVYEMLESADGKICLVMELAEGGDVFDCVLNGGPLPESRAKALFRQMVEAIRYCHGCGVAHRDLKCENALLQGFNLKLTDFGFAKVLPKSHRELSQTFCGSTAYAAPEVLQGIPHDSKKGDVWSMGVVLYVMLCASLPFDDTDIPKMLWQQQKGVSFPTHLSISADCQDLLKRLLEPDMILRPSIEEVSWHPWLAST
Text: as §1

[21] = biological target: T21, panel of 371 human kinases (Homo sapiens, UniProt O00238); conditions: ALK6/BMPR1B; 0.1 μM; 10 μM ATP; read-out: % Enzyme Activity (relative to DMSO controls)
T21 construct: purchased Reaction Biology Corp
Text: as §1

[22] = biological target: T22, panel of 371 human kinases (Homo sapiens, UniProt P19784); conditions: CK2a2; 0.1 μM; 10 μM ATP; read-out: % Enzyme Activity (relative to DMSO controls)
T22 construct: purchased Reaction Biology Corp
T22 sequence (P19784 whole entry): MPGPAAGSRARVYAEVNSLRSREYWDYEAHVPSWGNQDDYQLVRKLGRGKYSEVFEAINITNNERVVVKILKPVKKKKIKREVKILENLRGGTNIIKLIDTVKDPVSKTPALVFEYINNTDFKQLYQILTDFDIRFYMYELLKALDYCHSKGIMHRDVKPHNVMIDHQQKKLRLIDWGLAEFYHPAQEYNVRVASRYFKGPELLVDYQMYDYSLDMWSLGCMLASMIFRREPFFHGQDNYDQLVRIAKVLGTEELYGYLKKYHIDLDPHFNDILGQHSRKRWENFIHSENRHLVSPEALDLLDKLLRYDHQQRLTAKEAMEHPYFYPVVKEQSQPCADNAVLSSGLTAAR
Text: as §1

[23] = biological target: T23, panel of 371 human kinases (Homo sapiens, UniProt Q99759); conditions: MEKK3; 0.1 μM; 10 μM ATP; read-out: % Enzyme Activity (relative to DMSO controls)
T23 construct: purchased Reaction Biology Corp
Text: as §1

[24] = biological target: T24, panel of 371 human kinases (Homo sapiens, UniProt Q04912); conditions: RON/MST1R; 0.1 μM; 10 μM ATP; read-out: % Enzyme Activity (relative to DMSO controls)
T24 construct: purchased Reaction Biology Corp
Text: as §1

Row | SMILES | remaining activity at 0.1 µM [1] | remaining activity at 0.1 µM [2] | remaining activity at 0.1 µM [3] | remaining activity at 0.1 µM [4] | remaining activity at 0.1 µM [5] | remaining activity at 0.1 µM [6] | remaining activity at 0.1 µM [7] | remaining activity at 0.1 µM [8] | remaining activity at 0.1 µM [9] | remaining activity at 0.1 µM [10] | remaining activity at 0.1 µM [11] | remaining activity at 0.1 µM [12] | remaining activity at 0.1 µM [13] | remaining activity at 0.1 µM [14] | remaining activity at 0.1 µM [15] | remaining activity at 0.1 µM [16] | remaining activity at 0.1 µM [17] | remaining activity at 0.1 µM [18] | remaining activity at 0.1 µM ([19]; CDK6/cyclin D1) | remaining activity at 0.1 µM ([19]; CDK6/cyclin D3) | further results
1 | CN1CCN(Cc2ccc(-c3cnc4[nH]cc(-c5ccc6[nH]ccc6c5)c4c3)cc2)CC1 [Compound 1, 3-(1H-Indol-5-yl)-5-(4-((4-methylpiperazin-1-yl)methyl)phenyl)-1H-pyrrolo[2,3-b]pyridine, reference compound] | 98% | 106% | 89.5% | 110% | 111% | 105% | 83.5% | 81.3% | 99% | 81.2% | 88% | 84.8% | 94.6% | 83.2% | 117% | 90.8% | 70% | 78% | 63.1% | 92.2% | remaining activity at 0.1 µM [20]: 146%; remaining activity at 0.1 µM [21]: 116%; remaining activity at 0.1 µM [22]: 84.3%; remaining activity at 0.1 µM [23]: 91.6%; remaining activity at 0.1 µM [24]: 91.6%
2 | OCCN1CCN(Cc2ccc(-c3cnc4[nH]cc(-c5cccc(Cl)c5)c4c3)cc2)CC1 [Compound 12k, 2-(4-(4-(3-(3-Chlorophenyl)-1H-pyrrolo[2,3-b]pyridin-5-yl)benzyl)piperazin-1-yl)ethan-1-ol] | 97.3% | 104% | 91.3% | 110% | 109% | 103% | 41.2% | 84.1% | 89.6% | 75.1% | 93.8% | 91.6% | 96.3% | 88.1% | 100% | 92.9% | 41.5% | 90.1% | 30.7% | 68.2% | remaining activity at 0.1 µM [20]: 129%; remaining activity at 0.1 µM [21]: 125%; remaining activity at 0.1 µM [22]: 89%; remaining activity at 0.1 µM [23]: 94.6%; remaining activity at 0.1 µM [24]: 94.1%
